# According to paper PMC11968819 (Scientific Reports, 2025):
# Tests used:
# [1] = human, four-donor-derived monolayer models (Supplementary Fig. 8a)
# [2] = target: T1, Carboxylesterase 2 (CES2) (Homo sapiens, UniProt O00748); test: Irinotecan metabolizing assay; format: in vitro ADME; details: 10 μM irinotecan, 20 μM loperamide, 3 h
# T1 sequence (O00748 27-559): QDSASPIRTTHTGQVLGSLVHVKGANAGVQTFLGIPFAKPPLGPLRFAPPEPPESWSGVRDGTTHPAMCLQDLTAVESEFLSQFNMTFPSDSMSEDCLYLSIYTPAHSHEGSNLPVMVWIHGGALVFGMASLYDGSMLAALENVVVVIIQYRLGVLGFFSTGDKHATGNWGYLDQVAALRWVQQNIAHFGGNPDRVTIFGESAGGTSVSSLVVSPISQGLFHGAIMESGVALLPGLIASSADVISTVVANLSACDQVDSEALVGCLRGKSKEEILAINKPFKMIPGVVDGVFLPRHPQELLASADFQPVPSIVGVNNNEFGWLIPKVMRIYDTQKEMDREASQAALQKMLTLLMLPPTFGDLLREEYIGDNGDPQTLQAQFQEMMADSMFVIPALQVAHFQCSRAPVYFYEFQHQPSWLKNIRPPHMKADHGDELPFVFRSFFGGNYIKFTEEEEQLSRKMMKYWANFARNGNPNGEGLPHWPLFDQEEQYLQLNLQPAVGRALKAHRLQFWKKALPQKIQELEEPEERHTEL
# [3] = test system: human duodenal organoid-derived monolayer model
# P-gp = P-gp (Homo sapiens, UniProt P08183); test: Efflux drug transporter assay with digoxin; details: 10 μM digoxin, 10 μM inhibitor
# Sequence of P-gp (P08183 whole entry): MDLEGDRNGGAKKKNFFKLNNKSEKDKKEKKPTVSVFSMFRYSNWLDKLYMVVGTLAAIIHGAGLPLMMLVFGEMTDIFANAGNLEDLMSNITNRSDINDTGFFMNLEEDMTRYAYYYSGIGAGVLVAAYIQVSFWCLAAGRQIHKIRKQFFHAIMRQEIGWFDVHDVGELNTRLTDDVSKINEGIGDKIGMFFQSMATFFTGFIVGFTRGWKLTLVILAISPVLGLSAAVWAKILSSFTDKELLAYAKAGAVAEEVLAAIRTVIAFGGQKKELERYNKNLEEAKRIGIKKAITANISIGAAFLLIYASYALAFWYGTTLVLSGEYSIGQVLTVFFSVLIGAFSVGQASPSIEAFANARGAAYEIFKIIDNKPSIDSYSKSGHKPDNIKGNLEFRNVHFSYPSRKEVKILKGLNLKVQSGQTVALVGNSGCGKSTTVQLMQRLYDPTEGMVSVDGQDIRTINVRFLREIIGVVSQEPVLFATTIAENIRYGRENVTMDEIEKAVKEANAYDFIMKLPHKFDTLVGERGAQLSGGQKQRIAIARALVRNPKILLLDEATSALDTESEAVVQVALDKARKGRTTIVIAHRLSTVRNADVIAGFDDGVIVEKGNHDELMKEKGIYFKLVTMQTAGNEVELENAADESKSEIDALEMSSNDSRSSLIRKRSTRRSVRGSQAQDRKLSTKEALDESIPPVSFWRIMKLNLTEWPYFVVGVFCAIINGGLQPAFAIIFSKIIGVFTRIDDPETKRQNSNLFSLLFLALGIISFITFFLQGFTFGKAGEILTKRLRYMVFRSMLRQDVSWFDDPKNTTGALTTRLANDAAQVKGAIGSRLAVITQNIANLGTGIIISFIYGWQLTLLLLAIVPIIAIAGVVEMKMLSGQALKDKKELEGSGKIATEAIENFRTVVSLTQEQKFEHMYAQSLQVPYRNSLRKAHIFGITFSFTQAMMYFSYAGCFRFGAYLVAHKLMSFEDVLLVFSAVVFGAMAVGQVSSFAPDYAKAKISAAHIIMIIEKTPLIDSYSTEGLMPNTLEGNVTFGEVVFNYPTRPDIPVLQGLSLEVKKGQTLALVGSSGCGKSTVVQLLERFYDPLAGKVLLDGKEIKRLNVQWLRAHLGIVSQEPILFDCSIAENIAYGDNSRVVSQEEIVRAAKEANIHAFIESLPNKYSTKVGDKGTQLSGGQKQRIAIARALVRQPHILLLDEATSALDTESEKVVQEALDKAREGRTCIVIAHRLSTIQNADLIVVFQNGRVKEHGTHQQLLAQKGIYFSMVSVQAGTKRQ
# [4] = test system: human duodenal organoid-derived monolayer model; test: FaSSIF tolerability assay with lucifer yellow; format: in vitro ADME; details: FaSSIF pH 6.5 apical, 2 h; within individual experiments and inter-experiments
# [5] = test system: UDP-glucuronosyltransferase (UGT); test: Raloxifene permeability and metabolizing assay; format: in vitro ADME, human; details: 5 μM raloxifene
Papp at 10 μM [1] [×10⁻⁶ cm/s],Molecule,also measured
> 1,CC(C)NCC(O)COc1cccc2ccccc12 (stereo not drawn) [Propranolol],
> 1,O=C(O)C[C@H](O)C[C@H](O)/C=C/c1c(C2CC2)nc2ccccc2c1-c1ccc(F)cc1 [Pitavastatin],
> 1,CN(CCOc1ccc(CC2SC(=O)NC2=O)cc1)c1ccccn1 (stereo not drawn) [Rosiglitazone],

# More lines, now with the values behind:
Molecule,Papp at 10 μM [1] [×10⁻⁶ cm/s],also measured
CN(C)C(=O)C(CCN1CCC(O)(c2ccc(Cl)cc2)CC1)(c1ccccc1)c1ccccc1 [loperamide],,Effect on generation of SN-38 from irinotecan [2]: significantly inhibited
Cc1cc(=O)n(-c2ccccc2)n1C [Antipyrine],> 1,
"Nn1nnc2ccccc21 [ABT, 1-aminobenzotriazole]",,Effect on amount of midazolam metabolites [3]: significantly decreased; Effect on midazolam permeability [3]: significantly enhanced
"O[C@@H](COc1cccc2ncccc12)CN1CCN([C@@H]2c3ccccc3[C@@H]3[C@H](c4ccccc42)C3(F)F)CC1 [zosquidar, zosuquidar]",,Effect on transport of P-gp substrate digoxin (P-gp): canceled
Cc1onc(-c2ccccc2)c1C(=O)N[C@@H]1C(=O)N2[C@@H]1SC(C)(C)[C@@H]2C(=O)O [Oxacillin],< 1,
CC(C(=O)O)c1cccc(C(=O)c2ccccc2)c1 (stereo not drawn) [Ketoprofen],> 1,
COCCc1ccc(OCC(O)CNC(C)C)cc1 (stereo not drawn) [Metoprolol],> 1,
lucifer yellow,,Papp of lucifer yellow [4]: below 1.0 × 10^–6 cm/s
CCC1=C(C)CN(C(=O)NCCc2ccc(S(=O)(=O)NC(=O)N[C@H]3CC[C@H](C)CC3)cc2)C1=O [Glimepiride],> 1,
NC(=O)N1c2ccccc2C=Cc2ccccc21 [Carbamazepine],> 1,
O=C(c1ccc(OCCN2CCCCC2)cc1)c1c(-c2ccc(O)cc2)sc2cc(O)ccc12 [Raloxifene],,Metabolism by UGT [5]: mostly found to be metabolized to glucuronide
